Drawing on ChEMBL document CHEMBL3132744, “Structureactivity relationship studies of miniproteins targeting the androgen receptorcoactivator interaction” (Medchemcomm, 2013), this text covers Ki for twelve compounds.

Square brackets hold non-standard residues; d marks the D form. Peptide text beside a SMILES is read from it. Phe(4-Cl) = N[C@@H](Cc1ccc(Cl)cc1)C(=O)O; Cha = N[C@@H](CC1CCCCC1)C(=O)O

The assay addresses T1, Androgen receptor (Homo sapiens, UniProt P10275).
T1 sequence (P10275 whole entry): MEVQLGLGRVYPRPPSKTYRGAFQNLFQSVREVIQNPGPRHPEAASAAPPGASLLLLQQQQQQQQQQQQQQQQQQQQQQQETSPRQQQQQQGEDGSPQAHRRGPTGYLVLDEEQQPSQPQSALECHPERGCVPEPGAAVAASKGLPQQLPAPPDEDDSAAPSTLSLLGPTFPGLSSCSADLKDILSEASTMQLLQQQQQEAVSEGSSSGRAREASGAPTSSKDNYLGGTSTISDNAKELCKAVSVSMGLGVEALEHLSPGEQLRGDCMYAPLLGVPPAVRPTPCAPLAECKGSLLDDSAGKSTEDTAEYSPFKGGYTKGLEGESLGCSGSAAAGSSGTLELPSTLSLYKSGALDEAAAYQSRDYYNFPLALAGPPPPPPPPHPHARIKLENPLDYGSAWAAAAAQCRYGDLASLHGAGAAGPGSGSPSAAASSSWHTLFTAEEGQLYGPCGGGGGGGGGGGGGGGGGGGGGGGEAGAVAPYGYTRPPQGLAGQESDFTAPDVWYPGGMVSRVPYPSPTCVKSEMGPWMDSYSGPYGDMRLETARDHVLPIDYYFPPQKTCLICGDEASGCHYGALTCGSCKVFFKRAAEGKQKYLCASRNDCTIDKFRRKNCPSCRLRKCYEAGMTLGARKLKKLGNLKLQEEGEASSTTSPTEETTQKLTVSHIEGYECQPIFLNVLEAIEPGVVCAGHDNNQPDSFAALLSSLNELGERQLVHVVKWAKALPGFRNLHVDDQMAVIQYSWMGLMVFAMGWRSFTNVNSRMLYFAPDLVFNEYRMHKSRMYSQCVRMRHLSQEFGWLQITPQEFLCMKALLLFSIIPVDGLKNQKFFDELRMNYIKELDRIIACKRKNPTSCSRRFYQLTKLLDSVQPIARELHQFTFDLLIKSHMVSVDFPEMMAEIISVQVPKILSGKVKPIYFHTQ
Description: Displacement of fluorescein-CSSRFESLFAGEKESR from human androgen receptor-LBD after 1 hr by fluorescence polarization assay.
On to `CC(C)C[C@H](NC(=O)[C@H](CS)NC(=O)[C@@H](NC(=O)[C@H](Cc1ccccc1)NC(=O)[C@H](Cc1ccc(O)cc1)NC(=O)[C@H](CS)NC(=O)[C@H](C)N)C(C)C)C(=O)N[C@@H](Cc1ccccc1)C(=O)N[C@@H](CCC(=O)O)C(=O)NCC(=O)N[C@@H](CC(N)=O)C(=O)N[C@@H](CC(=O)O)C(=O)N[C@@H](CCC(=O)O)C(=O)N[C@@H](CCC(=O)O)C(=O)N[C@H](C(=O)N[C@@H](CS)C(=O)N[C@@H](CCCCN)C(=O)N[C@@H](CCC(=O)O)C(=O)N[C@@H](Cc1c[nH]c2ccccc12)C(=O)N[C@@H](CS)C(=O)O)[C@@H](C)O` (H-ACYFVCLFEGNDEETCKEWC-OH), for which the Ki (commonly a dissociation constant, usually derived from enzyme kinetics or from competition with a known ligand) was 3 µM.

`CC[C@H](C)[C@H](NC(=O)[C@H](CS)NC(=O)[C@H](Cc1ccccc1)NC(=O)[C@H](CC(C)C)NC(=O)[C@H](CCC(=O)O)NC(=O)[C@H](CS)NC(=O)[C@H](Cc1ccccc1)NC(=O)[C@H](CCCNC(=N)N)NC(=O)[C@@H](N)CC(N)=O)C(=O)N[C@@H](CCC(N)=O)C(=O)NCC(=O)N[C@H](C(=O)N[C@@H](CCC(=O)O)C(=O)N[C@@H](CC(=O)O)C(=O)N[C@H](C(=O)N[C@@H](CCCCN)C(=O)N[C@@H](C)C(=O)N[C@@H](CS)C(=O)N[C@@H](CCC(=O)O)C(=O)N[C@@H](Cc1c[nH]c2ccccc12)C(=O)N[C@@H](C)C(=O)N[C@@H](CS)C(=O)N[C@@H](CCC(N)=O)C(=O)O)C(C)C)[C@@H](C)O` (H-NRFCELFCIQGTEDVKACEWACQ-OH) yielded a Ki of 3 µM. `CC(C)C[C@H](NC(=O)[C@H](CS)NC(=O)[C@H](CC(N)=O)NC(=O)[C@H](Cc1ccccc1)NC(=O)[C@H](Cc1ccc(O)cc1)NC(=O)[C@H](CS)NC(=O)[C@H](C)N)C(=O)N[C@@H](CC1CCCCC1)C(=O)N[C@@H](CCC(=O)O)C(=O)NCC(=O)N[C@@H](CC(N)=O)C(=O)N[C@@H](CC(=O)O)C(=O)N[C@@H](CCC(=O)O)C(=O)N[C@@H](CCC(=O)O)C(=O)N[C@H](C(=O)N[C@@H](CS)C(=O)N[C@@H](CCCCN)C(=O)N[C@@H](CCC(=O)O)C(=O)N[C@@H](Cc1c[nH]c2ccccc12)C(=O)N[C@@H](CS)C(=O)O)[C@@H](C)O` (H-ACYFNCL[Cha]EGNDEETCKEWC-OH): the Ki was 2.3 µM. The figure for `CC[C@H](C)[C@H](NC(=O)[C@H](CS)NC(=O)[C@H](CC1CCCCC1)NC(=O)[C@H](CC(C)C)NC(=O)[C@H](CCC(=O)O)NC(=O)[C@H](CS)NC(=O)[C@H](Cc1ccccc1)NC(=O)[C@H](CCCNC(=N)N)NC(=O)[C@@H](N)CC(N)=O)C(=O)N[C@@H](CCC(N)=O)C(=O)NCC(=O)N[C@H](C(=O)NCC(=O)N[C@@H](CC(=O)O)C(=O)N[C@H](C(=O)N[C@@H](CCCCN)C(=O)N[C@@H](C)C(=O)N[C@@H](CS)C(=O)N[C@@H](CCC(=O)O)C(=O)N[C@@H](Cc1c[nH]c2ccccc12)C(=O)N[C@@H](C)C(=O)N[C@@H](CS)C(=O)N[C@@H](CCC(N)=O)C(=O)O)C(C)C)[C@@H](C)O` (H-NRFCEL[Cha]CIQGTGDVKACEWACQ-OH) is 56 µM. With `CC[C@H](C)[C@H](NC(=O)[C@H](CS)NC(=O)[C@H](Cc1ccccc1)NC(=O)[C@H](CC(C)C)NC(=O)[C@H](CCC(=O)O)NC(=O)[C@H](CS)NC(=O)[C@H](Cc1ccccc1)NC(=O)[C@H](CCCNC(=N)N)NC(=O)[C@@H](N)CC(N)=O)C(=O)N[C@@H](CCC(N)=O)C(=O)N[C@@H](CC(=O)O)C(=O)N[C@H](C(=O)NCC(=O)N[C@@H](CC(=O)O)C(=O)N[C@H](C(=O)N[C@@H](CCCCN)C(=O)N[C@@H](C)C(=O)N[C@@H](CS)C(=O)N[C@@H](CCC(=O)O)C(=O)N[C@@H](Cc1c[nH]c2ccccc12)C(=O)N[C@@H](C)C(=O)N[C@@H](CS)C(=O)N[C@@H](CCC(N)=O)C(=O)O)C(C)C)[C@@H](C)O` (H-NRFCELFCIQDTGDVKACEWACQ-OH), the Ki worked out at 2.1 µM.

`CC(C)C[C@H](NC(=O)[C@H](CS)NC(=O)[C@H](CC(N)=O)NC(=O)[C@H](Cc1ccccc1)NC(=O)[C@H](Cc1ccc(O)cc1)NC(=O)[C@H](CS)NC(=O)[C@H](C)N)C(=O)N[C@@H](Cc1ccc(Cl)cc1)C(=O)N[C@@H](CCC(=O)O)C(=O)NCC(=O)N[C@@H](CC(N)=O)C(=O)N[C@@H](CC(=O)O)C(=O)N[C@@H](CCC(=O)O)C(=O)N[C@@H](CCC(=O)O)C(=O)N[C@H](C(=O)N[C@@H](CS)C(=O)N[C@@H](CCCCN)C(=O)N[C@@H](CCC(=O)O)C(=O)N[C@@H](Cc1c[nH]c2ccccc12)C(=O)N[C@@H](CS)C(=O)O)[C@@H](C)O` (H-ACYFNCL[Phe(4-Cl)]EGNDEETCKEWC-OH): the Ki is 0.6 µM. The figure for `CC[C@H](C)[C@H](NC(=O)[C@H](CS)NC(=O)[C@H](Cc1ccccc1)NC(=O)[C@H](CC(C)C)NC(=O)[C@H](CCC(=O)O)NC(=O)[C@H](CS)NC(=O)[C@H](Cc1ccc(Cl)cc1)NC(=O)[C@H](CCCNC(=N)N)NC(=O)[C@@H](N)CC(N)=O)C(=O)N[C@@H](CCC(N)=O)C(=O)NCC(=O)N[C@H](C(=O)NCC(=O)N[C@@H](CC(=O)O)C(=O)N[C@H](C(=O)N[C@@H](CCCCN)C(=O)N[C@@H](C)C(=O)N[C@@H](CS)C(=O)N[C@@H](CCC(=O)O)C(=O)N[C@@H](Cc1c[nH]c2ccccc12)C(=O)N[C@@H](C)C(=O)N[C@@H](CS)C(=O)N[C@@H](CCC(N)=O)C(=O)O)C(C)C)[C@@H](C)O` (H-NR[Phe(4-Cl)]CELFCIQGTGDVKACEWACQ-OH) is 2.3 µM.

As to `CC(C)C[C@H](NC(=O)[C@H](CS)NC(=O)[C@H](Cc1ccccc1)NC(=O)[C@H](Cc1ccccc1)NC(=O)[C@H](Cc1ccc(O)cc1)NC(=O)[C@H](CS)NC(=O)[C@H](C)N)C(=O)N[C@@H](Cc1ccccc1)C(=O)N[C@@H](CCC(=O)O)C(=O)NCC(=O)N[C@@H](CC(N)=O)C(=O)N[C@@H](CC(=O)O)C(=O)N[C@@H](CCC(=O)O)C(=O)N[C@@H](CCC(=O)O)C(=O)N[C@H](C(=O)N[C@@H](CS)C(=O)N[C@@H](CCCCN)C(=O)N[C@@H](CCC(=O)O)C(=O)N[C@@H](Cc1c[nH]c2ccccc12)C(=O)N[C@@H](CS)C(=O)O)[C@@H](C)O` (H-ACYFFCLFEGNDEETCKEWC-OH), the Ki is 4 µM.

As for `CC[C@H](C)[C@H](NC(=O)[C@H](CS)NC(=O)[C@H](CC(C)C)NC(=O)[C@H](CC(C)C)NC(=O)[C@H](CCC(=O)O)NC(=O)[C@H](CS)NC(=O)[C@H](CC(C)C)NC(=O)[C@H](CCCNC(=N)N)NC(=O)[C@@H](N)CC(N)=O)C(=O)N[C@@H](CCC(N)=O)C(=O)NCC(=O)N[C@H](C(=O)NCC(=O)N[C@@H](CC(=O)O)C(=O)N[C@H](C(=O)N[C@@H](CCCCN)C(=O)N[C@@H](C)C(=O)N[C@@H](CS)C(=O)N[C@@H](CCC(=O)O)C(=O)N[C@@H](Cc1c[nH]c2ccccc12)C(=O)N[C@@H](C)C(=O)N[C@@H](CS)C(=O)N[C@@H](CCC(N)=O)C(=O)O)C(C)C)[C@@H](C)O` (H-NRLCELLCIQGTGDVKACEWACQ-OH), the Ki was 13 µM.

Turning to `CC[C@H](C)[C@H](NC(=O)[C@H](CS)NC(=O)[C@H](Cc1ccc(Cl)cc1)NC(=O)[C@H](CC(C)C)NC(=O)[C@H](CCC(=O)O)NC(=O)[C@H](CS)NC(=O)[C@H](Cc1ccccc1)NC(=O)[C@H](CCCNC(=N)N)NC(=O)[C@@H](N)CC(N)=O)C(=O)N[C@@H](CCC(N)=O)C(=O)NCC(=O)N[C@H](C(=O)NCC(=O)N[C@@H](CC(=O)O)C(=O)N[C@H](C(=O)N[C@@H](CCCCN)C(=O)N[C@@H](C)C(=O)N[C@@H](CS)C(=O)N[C@@H](CCC(=O)O)C(=O)N[C@@H](Cc1c[nH]c2ccccc12)C(=O)N[C@@H](C)C(=O)N[C@@H](CS)C(=O)N[C@@H](CCC(N)=O)C(=O)O)C(C)C)[C@@H](C)O` (H-NRFCEL[Phe(4-Cl)]CIQGTGDVKACEWACQ-OH), the Ki worked out at 32 µM. `CC[C@H](C)[C@H](NC(=O)[C@H](CS)NC(=O)[C@H](Cc1ccccc1)NC(=O)[C@H](CC(C)C)NC(=O)[C@H](CCC(=O)O)NC(=O)[C@H](CS)NC(=O)[C@H](Cc1ccccc1)NC(=O)[C@H](CCCNC(=N)N)NC(=O)[C@@H](N)CCCCN)C(=O)N[C@@H](CCC(N)=O)C(=O)NCC(=O)N[C@H](C(=O)NCC(=O)N[C@@H](CC(=O)O)C(=O)N[C@H](C(=O)N[C@@H](CCCCN)C(=O)N[C@@H](C)C(=O)N[C@@H](CS)C(=O)N[C@@H](CCC(=O)O)C(=O)N[C@@H](Cc1c[nH]c2ccccc12)C(=O)N[C@@H](C)C(=O)N[C@@H](CS)C(=O)N[C@@H](CCC(N)=O)C(=O)O)C(C)C)[C@@H](C)O` (H-KRFCELFCIQGTGDVKACEWACQ-OH) registered an inhibition constant Ki of 1.9 µM.

Compound `CC(C)C[C@H](NC(=O)[C@H](CS)NC(=O)[C@H](CC(N)=O)NC(=O)[C@H](Cc1ccccc1)NC(=O)[C@H](Cc1ccc(O)cc1)NC(=O)[C@H](CS)NC(=O)[C@H](C)N)C(=O)N[C@@H](Cc1ccccc1)C(=O)N[C@@H](CCC(=O)O)C(=O)NCC(=O)N[C@@H](CC(N)=O)C(=O)N[C@@H](CC(=O)O)C(=O)N[C@@H](CCC(=O)O)C(=O)N[C@@H](CCC(=O)O)C(=O)N[C@H](C(=O)N[C@@H](CS)C(=O)N[C@@H](CCCCN)C(=O)N[C@@H](CCC(=O)O)C(=O)N[C@@H](CCCNC(=N)N)C(=O)N[C@@H](CS)C(=O)O)[C@@H](C)O` (H-ACYFNCLFEGNDEETCKERC-OH) yielded a Ki of 2 µM.
